Assay results taken from EP0131315A2, “Nasal preparations comprising anticholinergic quaternary ammonium salts” (ISTITUTO DE ANGELI S.p.A., priority 1983, dated 1985).
“And” between values parts separate entries of the source, which are not always exact repeats. Equal values may be shown once. Read-outs that look alike come from different tables or passages of the source.

Columns and labels:
[1] = Urinary excretion (bioavailability) after intravenous, oral and nasal administration in the rat; drug in urine determined by muscarinic receptor binding assay; format: in vivo, male Sprague-Dawley rats; details: for amount of the compound found in the urine / dose excreted at 6 h / dose excreted at 24 h / dose excreted at 12 h: 2 mg/rat; for dose excreted at 6 h / dose excreted at 24 h / dose excreted at 12 h / bioavailability: urine, 2 mg; for dose excreted at 6 h: hours 0-6, mean of 10 rats; for dose excreted at 6 h / dose excreted at 24 h / dose excreted at 12 h: read-out: amount of the compound found in the urine; for dose excreted at 12 h: hours 6-12, mean of 10 rats
Protocol: As a representative drug of this class of compounds N-cyclopropylmethylscopolamine bromide was employed in the method and in the compositions according to the present invention. The bioavailability of this compound after administration by nasal and oral route has been examined and then compared by the following general method. The investigated drug was administered in equal doses by the nasal, oral and intravenous route. 6, 12 and 24 hours after administration the quantitative excretion into the urine for any of the routes of administration was studied. The total amount of the drug excreted during the investigated time intervals was expressed as percentage of the intravenously eliminated amount, considering the latter value as an equivalent for 100% bioavailability.
In detail the following studies have been carried out. For each experiment 10 male Sprague-Dawley rats, weighing 280+ 20g have been used. For the i.v. administration rats fasted for 18 hours were anaesthetized by intraperitoneal sodium pentobarbital solution 2 ml/kg corresponding to 60 mg/kg/rat. A 4% solution of the drug in buffered saline (pH=7.4) was injected into the femoral vein ([…] corresponding to 2 mg of the active ingredient). For the oral administration 18 hours fasted and conscious rats received an 0.2% solution of the drug in saline by means of a stomach tube (1 ml/rat corresponding to 2 mg of the active principle). For the nasal administration the investigated compounds, for example N-cyclopropylmethyl scopolamine bromide, was administered to 18 hours fasted and as above described anaesthetized rats at a dose of 2 mg/rat.
(§1) This dose corresponds either to 25µl of saline (4% solution) or 5 mg of a 20% gel introduced into both nasal cavities by means of micropipette. After the administration by any route the animals were transfered into metabolic cages and received 3 ml of water by stomach tube. The urine was collected 6,12 and 24 hours after administration and the excreted drug was determined with the following original method which is based on the binding affinity of the drugs to their pharmacological receptors. […] It follows from this that knowing the affinity of the drugs it is possible to assay the concentration of the drugs in biological fluids. For this a suitable in vitro receptor preparation and a radio ligand that can bind specifically to the receptor and can be displaced by the test compound is needed. In the present invention tritiated N-methyl- scopolamine (^3H-NMS) in a final concentration of 3.10^-10M that occupies 50% of the muscarinic receptors was employed. As in vitro receptor preparation we used a homogenate from rat cerebral cortex diluted 1:3000 in 20 mM HEPES, 100 mM NaCl and 10 mM MgCl2 (pH 7.4). After incubation of ^3H-NMS with the receptor preparation receptor bound ligand was separated from free ligand by centrifugation and the amountof the receptor bound ligand was measured as radioactivity (dpm) in the pellet.

[2] = system: muscarinic receptor of cerebral cortex; assay: Displacement of 3H-NMS from the muscarinic receptor (standard curve, Fig. 1); format: binding; details: rat cerebral cortex homogenate, 3H-NMS 3.10^-10M, increasing concentrations
Protocol: as §1, with “pellet. […]” for “pellet.”

## C[N+]1(CC2CC2)C2CC(OC(=O)C(CO)c3ccccc3)CC1C1OC12 (centres unmarked) [N-cyclopropylmethylscopolamine bromide]
[1]; I.V., hours 0-6, rat (relative to total 0-24 h i.v. excretion)
  PERCENT URINARY EXCRETION BY OTHER ROUTES RELATIVE TO I.V. ADMINISTRATION: 88.01%
[1]; I.V., hours 0-24, rat (reference = 100)
  PERCENT URINARY EXCRETION BY OTHER ROUTES RELATIVE TO I.V. ADMINISTRATION: 100.00%
[1]; I.V., hours 6-12, rat
  PERCENT URINARY EXCRETION BY OTHER ROUTES RELATIVE TO I.V. ADMINISTRATION: 8.45%
[1]; I.V., hours 12-24, rat
  PERCENT URINARY EXCRETION BY OTHER ROUTES RELATIVE TO I.V. ADMINISTRATION: 3.54%
[1]; NASAL GEL, hours 0-6, rat
  PERCENT URINARY EXCRETION BY OTHER ROUTES RELATIVE TO I.V. ADMINISTRATION: 9.01%
[1]; NASAL GEL, hours 0-24, rat
  PERCENT URINARY EXCRETION BY OTHER ROUTES RELATIVE TO I.V. ADMINISTRATION: 22.85%
[1]; NASAL GEL, hours 6-12, rat
  PERCENT URINARY EXCRETION BY OTHER ROUTES RELATIVE TO I.V. ADMINISTRATION: 8.90%
[1]; NASAL GEL, hours 12-24, rat
  PERCENT URINARY EXCRETION BY OTHER ROUTES RELATIVE TO I.V. ADMINISTRATION: 4.94%
[1]; NASAL SOLUTION, hours 0-6, rat
  PERCENT URINARY EXCRETION BY OTHER ROUTES RELATIVE TO I.V. ADMINISTRATION: 21.23%
[1]; NASAL SOLUTION, hours 0-24, rat
  PERCENT URINARY EXCRETION BY OTHER ROUTES RELATIVE TO I.V. ADMINISTRATION: 23.00%
[1]; NASAL SOLUTION, hours 6-12, rat
  PERCENT URINARY EXCRETION BY OTHER ROUTES RELATIVE TO I.V. ADMINISTRATION: 1.43%
[1]; NASAL SOLUTION, hours 12-24, rat
  PERCENT URINARY EXCRETION BY OTHER ROUTES RELATIVE TO I.V. ADMINISTRATION: 0.34%
[1]; OS, hours 0-6, rat
  PERCENT URINARY EXCRETION BY OTHER ROUTES RELATIVE TO I.V. ADMINISTRATION: 1.02%
[1]; OS, hours 0-24, rat
  PERCENT URINARY EXCRETION BY OTHER ROUTES RELATIVE TO I.V. ADMINISTRATION: 1.40%
[1]; OS, hours 6-12, rat
  PERCENT URINARY EXCRETION BY OTHER ROUTES RELATIVE TO I.V. ADMINISTRATION: 0.30%
[1]; OS, hours 12-24, rat
  PERCENT URINARY EXCRETION BY OTHER ROUTES RELATIVE TO I.V. ADMINISTRATION: 0.08%
[1]; nasal gel, excretion nearly constant 0-6 and 6-12 hours, rat
  release profile from urinary excretion: prolonged release
[1]; nasal, both by solution and in the form of gel, rat
  absorption after nasal administration as compared to the per oral form: 16 times
[1]; nasal, gel, hours 0-24, individual rats, 1440 min
  amount of the compound found in the urine: 5.26 percentage of the total administered dose and 11.19 percentage of the total administered dose and 5.28 percentage of the total administered dose and 5.19 percentage of the total administered dose and 8.40 percentage of the total administered dose and 6.94 percentage of the total administered dose
[1]; nasal, gel, hours 6-12, individual rats, 720 min
  amount of the compound found in the urine: 2.00 percentage of the total administered dose and 4.58 percentage of the total administered dose and 1.63 percentage of the total administered dose and 2.17 percentage of the total administered dose and 3.24 percentage of the total administered dose and 2.90 percentage of the total administered dose and 1.53 percentage of the total administered dose
[1]; nasal, gel, hours 12-24, individual rats, 1440 min
  amount of the compound found in the urine: 1.19 percentage of the total administered dose and 1.9 percentage of the total administered dose and 2.0 percentage of the total administered dose and 0.63 percentage of the total administered dose and 2.04 percentage of the total administered dose and 1.18 percentage of the total administered dose
[1]; nasal, solution, hours 0-6, individual rats, 360 min
  amount of the compound found in the urine: 4.12 percentage of the total administered dose and 6.25 percentage of the total administered dose and 5.53 percentage of the total administered dose and 8.86 percentage of the total administered dose and 2.93 percentage of the total administered dose and 2.68 percentage of the total administered dose and 4.82 percentage of the total administered dose and 11.42 percentage of the total administered dose and 5.17 percentage of the total administered dose and 4.55 percentage of the total administered dose
[1]; nasal, solution, hours 0-24, individual rats, 1440 min
  amount of the compound found in the urine: 4.52 percentage of the total administered dose and 6.59 percentage of the total administered dose and 5.75 percentage of the total administered dose and 9.23 percentage of the total administered dose and 3.17 percentage of the total administered dose and 3.11 percentage of the total administered dose and 5.55 percentage of the total administered dose and 11.88 percentage of the total administered dose and 6.12 percentage of the total administered dose and 5.07 percentage of the total administered dose
[1]; nasal, solution, hours 6-12, individual rats, 720 min
  amount of the compound found in the urine: 0.33 percentage of the total administered dose and 0.25 percentage of the total administered dose and 0.13 percentage of the total administered dose and 0.23 percentage of the total administered dose and 0.19 percentage of the total administered dose and 0.39 percentage of the total administered dose and 0.65 percentage of the total administered dose and 0.28 percentage of the total administered dose and 0.86 percentage of the total administered dose and 0.44 percentage of the total administered dose
[1]; rat, nasal, gel
  dose excreted at 6 h: 2.39%
  dose excreted at 12 h: 2.36%
[1]; rat, nasal, gel, hours 0-24, mean of 10 rats
  dose excreted at 24 h: 6.06%
[1]; rat, nasal, gel, hours 12-24, mean of 10 rats
  dose excreted at 24 h: 1.31%
[1]; rat, nasal, solution
  dose excreted at 6 h: 5.63%
  dose excreted at 12 h: 0.38%
[1]; rat, nasal, solution, hours 0-24, mean of 10 rats
  dose excreted at 24 h: 6.1%
[1]; rat, nasal, solution, hours 12-24, mean of 10 rats
  dose excreted at 24 h: 0.09%
[1]; rat, iv, intravenous
  dose excreted at 6 h: 23.2%
  dose excreted at 12 h: 2.24%
[1]; rat, iv, intravenous, hours 0-24, individual rats
  dose excreted at 24 h: 31%
[1]; rat, iv, intravenous, hours 0-24, mean of 10 rats
  dose excreted at 24 h: 26.5%
[1]; rat, iv, intravenous, hours 12-24, mean of 10 rats
  dose excreted at 24 h: 0.94%
[1]; rat, po, oral
  dose excreted at 6 h: 0.27%
  dose excreted at 12 h: 0.08%
[1]; rat, po, oral, hours 0-24, mean of 10 rats
  dose excreted at 24 h: 0.37%
[1]; rat, po, oral, hours 12-24, mean of 10 rats
  dose excreted at 24 h: 0.02%
[1]; after oral administration, rat, read-out: bioavailability
  bioavailability: 1.4%
[1]; nasal route, both galenic formulations, solution and gel, rat, read-out: absolute bioavailability
  bioavailability: 23%
[2]
  ability to displace 3H-NMS from the muscarinic receptor: inhibit the specific binding between ^3H-NMS and receptor in a dose dependent manner
